# Experimental data: patent US20240254115A1 (ACONDICIONAMIENTO TARRASENSE, priority 2021, published 2024)
# What was measured:
# [1] = target: sigma-2 (σ2) site (Homo sapiens, UniProt Q5BJF2); conditions: background statement; cited from earlier work
# [2] = tested on: spared nerve injury (SNI) mice; conditions: SNI mice model of neuropathic pain; cited from earlier work
# [3] = target: T1, human σ1 receptor (Homo sapiens, UniProt Q99720); test: Human σ1 receptor radioligand assay; conditions: transfected HEK-293 membranes, 5 nM [3H](+)-pentazocine, 37° C. 120 minutes; + may also stand for 1-50% inhibition at 1 or 10 μM; read-out: Binding σ-1 Ki
# T1 construct: expressed in transfected cells; host or cells: HEK-293
# In short: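 Ki was derived from five test concentrations, or % inhibition was measured at a single 1 or 10 μM dose, against 5 nM [3H](+)-pentazocine. Incubation was 120 min at 37° C in 50 mM Tris-HCl pH 8 with 7 μg HEK-293 membranes, and 10 μM haloperidol set non-specific binding. Bound radioactivity was counted after filtration.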
# [4] = target: T2, human σ2/TMEM97 receptor (Homo sapiens, UniProt Q5BJF2); test: Binding assay to human σ2/TMEM97 receptor; conditions: transfected HEK-293 membranes, 10 nM [3H]-DTG, 25° C. 120 minutes; + may also stand for 1-50% inhibition at 1 or 10 μM; read-out: Binding σ-2 Ki
# T2 construct: expressed in transfected cells; host or cells: HEK-293
# In short: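 Membranes from transfected HEK-293 cells (15 µg) were incubated with 10 nM [3H]-DTG in 50 mM Tris-HCl pH 8.0 for 120 min at 25 °C, with 10 µM haloperidol defining non-specific binding. Filtration and scintillation counting followed. Compounds tested as % inhibition at 1 or 10 µM, or at five concentrations for Ki.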
# T2 sequence (Q5BJF2 whole entry): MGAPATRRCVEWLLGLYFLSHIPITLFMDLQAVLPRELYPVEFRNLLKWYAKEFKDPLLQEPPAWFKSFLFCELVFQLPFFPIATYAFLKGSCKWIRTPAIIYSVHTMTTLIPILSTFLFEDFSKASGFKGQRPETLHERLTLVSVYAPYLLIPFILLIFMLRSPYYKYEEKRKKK
# T1 sequence (Q99720 whole entry): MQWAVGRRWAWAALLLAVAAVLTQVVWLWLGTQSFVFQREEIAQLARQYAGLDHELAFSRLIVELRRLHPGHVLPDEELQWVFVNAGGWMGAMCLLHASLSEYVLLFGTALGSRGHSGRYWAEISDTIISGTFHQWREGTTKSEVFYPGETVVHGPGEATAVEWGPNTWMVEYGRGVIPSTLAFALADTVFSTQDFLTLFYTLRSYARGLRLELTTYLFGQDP
# Sequence of sigma-2 (σ2) site (Q5BJF2 whole entry): as the sequence (Q5BJF2 whole entry) above
Compound,affinity for the sigma-2 (σ2) site [1],mechanical hypersensitivity [2],Ki [3] [µM],Ki [4] [µM]
(+)-SKF-10047,micromolar affinity,,,
UKH-1114,,relieved mechanical hypersensitivity,,
"CC(C)(C)CCN1CCC2(CCCN(S(=O)(=O)c3ccc(N4CCCCC4=O)nc3)C2)CC1 [Example 122, 1-(5-((9-(3,3-Dimethylbutyl)-2,9-diazaspiro[5.5]undecan-2-yl)sulfonyl)pyridin-2-yl)piperidin-2-one]",,,0.1 to 0.5,< 0.1
"O=S(=O)(N[C@@H]1CCN(Cc2ccccc2)C1)c1ccc(N2CCOCC2)nc1 [Example 3, (R)-N-(1-Benzylpyrrolidin-3-yl)-6-morpholinopyridine-3-sulfonamide]",,,< 0.1,> 1
"CC(C)(C)CCN1CCC2(CCCN(S(=O)(=O)c3ccc(C(F)(F)F)nc3)C2)CC1 [Example 92, 9-(3,3-Dimethylbutyl)-2-((6-(trifluoromethyl)pyridin-3-yl)sulfonyl)-2,9-diazaspiro[5.5]undecane]",,,< 0.1,< 0.1
"CC(C)(C)CCN1CCC2(CCCN(S(=O)(=O)c3ccc(N4CCC5(CCOC5)CC4)nc3)C2)CC1 [Example 95, 8-(5-((9-(3,3-Dimethylbutyl)-2,9-diazaspiro[5.5]undecan-2-yl)sulfonyl)pyridin-2-yl)-2-oxa-8-azaspiro[4.5]decane]",,,< 0.1,< 0.1
"O=S(=O)(c1ccc(N2CCC(F)(F)CC2)nc1)N1CCC2(CCN(CC3CCOCC3)CC2)C1 [Example 83, 2-((6-(4,4-Difluoropiperidin-1-yl)pyridin-3-yl)sulfonyl)-8-((tetrahydro-2H-pyran-4-yl)methyl)-2,8-diazaspiro[4.5]decane]",,,< 0.1,< 0.1
"CC(C)N([C@@H]1CCN(Cc2ccc(C#N)cc2)C1)S(=O)(=O)c1ccc(N2CCOCC2)nc1 [Example 49, (R)—N-(1-(4-Cyanobenzyl)pyrrolidin-3-yl)-N-isopropyl-6-morpholinopyridine-3-sulfonamide]",,,> 1,> 1
"O=S(=O)(N[C@H]1CCN(Cc2ccccc2)C1)c1cnc(N2CCOCC2)c(F)c1 [Example 25, (S)-N-(1-Benzylpyrrolidin-3-yl)-5-fluoro-6-morpholinopyridine-3-sulfonamide]",,,< 0.1,> 1
"CN(CC1CCOCC1)C1CCN(S(=O)(=O)c2ccc(N3CCC(F)(F)CC3)nc2)CC1 [Example 169, 1-((6-(4,4-Difluoropiperidin-1-yl)pyridin-3-yl)sulfonyl)-N-methyl-N-((tetrahydro-2H-pyran-4-yl)methyl)piperidin-4-amine]",,,0.1 to 0.5,< 0.1
"CCC(=O)N(C)c1ccc(S(=O)(=O)N2CCC3(CCN(CCC(C)(C)C)CC3)CC2)cn1 [Example 105, N-(5-((9-(3,3-Dimethylbutyl)-3,9-diazaspiro[5.5]undecan-3-yl)sulfonyl)pyridin-2-yl)-N-methylpropionamide]",,,0.1 to 0.5,< 0.1
"CN(Cc1ccccc1)C1CCN(S(=O)(=O)c2ccc(N3CCC4(CCCO4)CC3)nc2)CC1 [Example 87, 1-((6-(1-Oxa-8-azaspiro[4.5]decan-8-yl)pyridin-3-yl)sulfonyl)-N-benzyl-N-methylpiperidin-4-amine]",,,> 1,< 0.1
"CC(C)(C)CCN1CCC2(CCCN(S(=O)(=O)c3ccc(N4CCOC4=O)nc3)C2)CC1 [Example 123, 3-(5-((9-(3,3-Dimethylbutyl)-2,9-diazaspiro[5.5]undecan-2-yl)sulfonyl)pyridin-2-yl)oxazolidin-2-one]",,,0.1 to 0.5,< 0.1
"O=C1OCCN1c1ccc(S(=O)(=O)N2CCCC3(CCN(CC4CCOCC4)CC3)C2)nc1 [Example 127, 3-(6-((9-((Tetrahydro-2H-pyran-4-yl)methyl)-2,9-diazaspiro[5.5]undecan-2-yl)sulfonyl)pyridin-3-yl)oxazolidin-2-one]",,,< 0.1,< 0.1
"CN(Cc1ccccc1F)C1CCN(S(=O)(=O)c2ccc(N3CCC(F)(F)CC3)nc2)CC1 [Example 172, 1-((6-(4,4-Difluoropiperidin-1-yl)pyridin-3-yl)sulfonyl)-N-(2-fluorobenzyl)-N-methylpiperidin-4-amine]",,,< 0.1,< 0.1
"O=S(=O)(N[C@H]1CC[C@H](NCc2ccccc2)CC1)c1ccc(N2CCOCC2)nc1 [Example 51, N-((1 r,4r)-4-(Benzylamino)cyclohexyl)-6-morpholinopyridine-3-sulfonamide]",,,> 1,0.1 to 0.5
"CC(C)(C)CCN1CCC2(CCCN(S(=O)(=O)c3ccc(C4CCOCC4)nc3)C2)CC1 [Example 116, 9-(3,3-Dimethylbutyl)-2-((6-(tetrahydro-2H-pyran-4-yl)pyridin-3-yl)sulfonyl)-2,9-diazaspiro[5.5]undecane]",,,< 0.1,< 0.1
"O=S(=O)(c1ccc(N2CCC(F)(F)CC2)nc1)N1CCC2(CCN(Cc3ccccc3)CC2)C1 [Example 82, 8-Benzyl-2-((6-(4,4-difluoropiperidin-1-yl)pyridin-3-yl)sulfonyl)-2,8-diazaspiro[4.5]decane]",,,< 0.1,< 0.1
